In US9517934B2, “Process for the generation of chlorine dioxide” (The United States of America as Represented by the …, priority 2013, dated 2016):

What was measured:
[1] = test system: Bacillus anthracis Sterne spores; format: cell-based; details: cotton/nylon fabric, 200, 80, or 40 ppm chlorine dioxide, 10 minutes
[2] = test system: Bacillus amyloliquefaciens spores; format: cell-based
[3] = diprotic, cited from earlier work

[O][Cl+][O-] [chlorine dioxide]
log reduction of B. anthracis Sterne spores [1]: 7.50 log reduction | presence of B. amyloliquefaciens spores after treatment [2]: significantly reduced but did not completely eliminate

N=C(N)S(=O)O [FSA, Formamidinesulfinic acid]
pKa1 ([3]; first dissociation): ≤ 2 | pKa2 ([3]; second dissociation): ~9
